Experimental data from US10344060B2 (priority 2013, dated 2019).
Where two headings read alike, the source gives them in different places.

Columns and labels:
Assay in all cases: cell-based
hNav1.7 [1] = target: T1, hNav1.7 (Homo sapiens, UniProt Q15858); type: cell-based; settings: for IC50: Table 15, read-out: PX hNav1.7 Tonic IC50; for Nav1.4/Nav1.7 / Nav1.5/Nav1.7: ratio of PX tonic IC50 values, Table 11
hNav1.6 = hNav1.6 (Homo sapiens, UniProt Q9UQD0); type: cell-based; settings: Table 15; for Nav1.6/Nav1.7: ratio of PX tonic IC50 values; for IC50: read-out: PX hNav1.6 Tonic IC50
Sequence of hNav1.6 (Q9UQD0 whole entry): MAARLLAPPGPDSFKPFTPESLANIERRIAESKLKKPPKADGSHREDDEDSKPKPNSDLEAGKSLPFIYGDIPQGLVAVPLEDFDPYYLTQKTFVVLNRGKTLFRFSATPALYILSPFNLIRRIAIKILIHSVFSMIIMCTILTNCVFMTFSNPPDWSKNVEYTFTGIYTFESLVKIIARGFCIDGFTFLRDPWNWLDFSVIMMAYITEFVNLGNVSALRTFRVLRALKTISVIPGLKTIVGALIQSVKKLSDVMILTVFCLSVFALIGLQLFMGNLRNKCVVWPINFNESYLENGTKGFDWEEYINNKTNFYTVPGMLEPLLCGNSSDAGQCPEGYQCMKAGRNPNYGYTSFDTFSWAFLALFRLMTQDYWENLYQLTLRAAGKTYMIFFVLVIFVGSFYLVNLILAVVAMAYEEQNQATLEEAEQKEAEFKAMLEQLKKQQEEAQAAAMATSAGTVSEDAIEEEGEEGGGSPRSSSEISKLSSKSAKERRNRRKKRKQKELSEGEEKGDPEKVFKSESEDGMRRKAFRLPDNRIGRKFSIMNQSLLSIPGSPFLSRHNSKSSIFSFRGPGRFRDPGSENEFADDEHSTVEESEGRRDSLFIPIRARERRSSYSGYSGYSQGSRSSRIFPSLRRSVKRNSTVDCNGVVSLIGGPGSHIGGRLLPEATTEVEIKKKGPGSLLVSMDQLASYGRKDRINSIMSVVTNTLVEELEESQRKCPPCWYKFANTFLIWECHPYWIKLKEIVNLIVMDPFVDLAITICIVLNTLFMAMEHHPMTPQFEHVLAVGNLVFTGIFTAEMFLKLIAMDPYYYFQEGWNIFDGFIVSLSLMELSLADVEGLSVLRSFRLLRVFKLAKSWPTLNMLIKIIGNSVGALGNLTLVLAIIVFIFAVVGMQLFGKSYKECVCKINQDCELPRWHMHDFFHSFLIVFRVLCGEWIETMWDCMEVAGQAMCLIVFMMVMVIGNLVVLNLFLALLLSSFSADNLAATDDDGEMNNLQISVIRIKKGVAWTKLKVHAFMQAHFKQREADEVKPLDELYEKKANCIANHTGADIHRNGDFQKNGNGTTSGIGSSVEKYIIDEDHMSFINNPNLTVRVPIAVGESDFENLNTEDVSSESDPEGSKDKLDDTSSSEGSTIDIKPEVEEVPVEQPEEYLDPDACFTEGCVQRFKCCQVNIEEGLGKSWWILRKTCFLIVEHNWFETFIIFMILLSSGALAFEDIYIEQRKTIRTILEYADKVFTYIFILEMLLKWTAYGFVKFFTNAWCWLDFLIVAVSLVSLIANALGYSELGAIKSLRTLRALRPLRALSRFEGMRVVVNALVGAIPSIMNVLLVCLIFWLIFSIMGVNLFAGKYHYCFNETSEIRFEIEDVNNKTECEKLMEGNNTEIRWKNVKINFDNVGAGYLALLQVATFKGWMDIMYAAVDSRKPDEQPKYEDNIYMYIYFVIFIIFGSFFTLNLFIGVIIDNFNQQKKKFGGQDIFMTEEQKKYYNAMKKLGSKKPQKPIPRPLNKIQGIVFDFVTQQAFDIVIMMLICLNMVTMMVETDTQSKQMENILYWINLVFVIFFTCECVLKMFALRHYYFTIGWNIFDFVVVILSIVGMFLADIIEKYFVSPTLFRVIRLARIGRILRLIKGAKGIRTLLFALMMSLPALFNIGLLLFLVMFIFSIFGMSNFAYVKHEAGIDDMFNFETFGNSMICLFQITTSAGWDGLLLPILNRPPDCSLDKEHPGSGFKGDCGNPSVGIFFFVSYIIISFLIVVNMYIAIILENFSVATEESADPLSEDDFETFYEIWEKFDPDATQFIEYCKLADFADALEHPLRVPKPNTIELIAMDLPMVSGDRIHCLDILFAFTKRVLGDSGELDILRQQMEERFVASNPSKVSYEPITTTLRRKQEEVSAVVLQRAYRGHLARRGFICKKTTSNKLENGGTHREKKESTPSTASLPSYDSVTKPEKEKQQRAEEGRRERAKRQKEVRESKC

hNav1.7 [2] = target: T1, hNav1.7; settings: read-out: IC50 (μM) Nav1.7
hNav1.5 [3] = target: T2, hNav1.5 (Homo sapiens, UniProt Q14524); settings: IonWorks Quattro; Table 6; read-out: IC50 (μM) Nav1.5
hNav1.3 = hNav1.3 (Homo sapiens, UniProt Q9NY46); settings: IonWorks Quattro; Table 6; read-out: IC50 (μM) Nav1.3
Sequence of hNav1.3 (Q9NY46 whole entry): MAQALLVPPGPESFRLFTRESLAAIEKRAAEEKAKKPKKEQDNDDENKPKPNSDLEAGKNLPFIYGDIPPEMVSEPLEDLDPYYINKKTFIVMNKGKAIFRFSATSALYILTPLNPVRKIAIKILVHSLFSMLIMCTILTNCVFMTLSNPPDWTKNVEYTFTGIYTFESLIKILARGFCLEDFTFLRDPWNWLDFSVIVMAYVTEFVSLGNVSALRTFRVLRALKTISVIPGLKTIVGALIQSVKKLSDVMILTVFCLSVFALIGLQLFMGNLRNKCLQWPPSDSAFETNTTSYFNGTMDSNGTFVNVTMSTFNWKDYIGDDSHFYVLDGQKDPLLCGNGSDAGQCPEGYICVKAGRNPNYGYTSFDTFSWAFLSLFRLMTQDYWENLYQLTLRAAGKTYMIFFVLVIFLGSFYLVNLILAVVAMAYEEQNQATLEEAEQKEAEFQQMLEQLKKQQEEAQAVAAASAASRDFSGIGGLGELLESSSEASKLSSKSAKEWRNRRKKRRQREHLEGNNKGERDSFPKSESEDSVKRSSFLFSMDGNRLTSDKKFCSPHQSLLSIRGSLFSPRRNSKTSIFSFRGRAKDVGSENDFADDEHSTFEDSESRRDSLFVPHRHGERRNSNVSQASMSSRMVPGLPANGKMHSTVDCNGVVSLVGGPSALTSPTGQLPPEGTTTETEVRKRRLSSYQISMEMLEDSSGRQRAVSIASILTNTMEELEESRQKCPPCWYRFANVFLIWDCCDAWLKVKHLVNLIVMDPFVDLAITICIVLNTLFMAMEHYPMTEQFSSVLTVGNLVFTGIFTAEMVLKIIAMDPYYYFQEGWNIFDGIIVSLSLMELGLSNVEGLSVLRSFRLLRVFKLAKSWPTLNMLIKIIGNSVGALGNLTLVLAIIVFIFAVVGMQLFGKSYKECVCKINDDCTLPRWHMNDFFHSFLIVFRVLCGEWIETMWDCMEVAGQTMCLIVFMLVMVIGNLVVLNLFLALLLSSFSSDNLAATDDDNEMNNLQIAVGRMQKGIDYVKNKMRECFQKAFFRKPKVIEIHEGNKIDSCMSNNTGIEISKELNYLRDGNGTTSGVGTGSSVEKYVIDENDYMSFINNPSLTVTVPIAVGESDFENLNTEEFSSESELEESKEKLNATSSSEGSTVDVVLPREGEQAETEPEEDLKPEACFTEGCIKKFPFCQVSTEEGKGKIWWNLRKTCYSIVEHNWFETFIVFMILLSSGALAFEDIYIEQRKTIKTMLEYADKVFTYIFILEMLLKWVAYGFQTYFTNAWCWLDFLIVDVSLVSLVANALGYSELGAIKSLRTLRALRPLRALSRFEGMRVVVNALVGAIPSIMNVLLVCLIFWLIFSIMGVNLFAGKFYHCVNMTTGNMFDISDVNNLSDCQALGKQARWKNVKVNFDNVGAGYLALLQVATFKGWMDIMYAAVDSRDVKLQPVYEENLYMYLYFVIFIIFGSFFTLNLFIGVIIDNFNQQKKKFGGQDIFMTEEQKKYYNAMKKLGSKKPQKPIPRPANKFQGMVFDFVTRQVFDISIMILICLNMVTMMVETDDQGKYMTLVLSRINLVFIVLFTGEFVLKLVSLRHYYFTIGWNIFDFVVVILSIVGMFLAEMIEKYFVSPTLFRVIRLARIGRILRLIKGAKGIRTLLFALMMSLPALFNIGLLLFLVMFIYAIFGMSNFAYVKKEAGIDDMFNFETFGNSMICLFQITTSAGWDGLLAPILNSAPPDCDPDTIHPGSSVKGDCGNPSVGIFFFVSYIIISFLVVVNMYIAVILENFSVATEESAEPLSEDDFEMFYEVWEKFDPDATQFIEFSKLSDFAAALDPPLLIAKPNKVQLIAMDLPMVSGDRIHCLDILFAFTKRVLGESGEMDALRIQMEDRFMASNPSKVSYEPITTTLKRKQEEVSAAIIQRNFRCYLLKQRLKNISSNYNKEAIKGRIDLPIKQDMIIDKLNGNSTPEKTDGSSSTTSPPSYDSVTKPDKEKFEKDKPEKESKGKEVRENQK

hNav1.4 [4] = target: T3, hNav1.4 (Homo sapiens, UniProt P35499); type: cell-based; settings: Table 6; for IC50: IonWorks Quattro, read-out: IC50 (μM) Nav1.4; for Nav1.4/Nav1.7: ratio of IonWorks Quattro IC50 values
hNav1.5 [5] = target: T2, hNav1.5; settings: Table 12; ratio of PX tonic IC50 values
hNav1.4 [6] = target: T3, hNav1.4; type: cell-based; settings: Table 12; ratio of PX tonic IC50 values

SMILES | IC50 (hNav1.7 [1]) [nM] | Nav1.4/Nav1.7 (hNav1.7 [1]) | Nav1.5/Nav1.7 (hNav1.7 [1]) | Nav1.6/Nav1.7 (hNav1.6) | IC50 (hNav1.6) [nM] | IC50 (hNav1.7 [2]) [µM] | IC50 (hNav1.5 [3]) [µM] | IC50 (hNav1.3) [µM] | IC50 (hNav1.4 [4]) [µM] | Nav1.4/Nav1.7 (hNav1.4 [4]) | Nav1.5/Nav1.7 (hNav1.5 [5]) | Nav1.4/Nav1.7 (hNav1.4 [6])
CC[C@H](C)[C@H](NC(=O)[C@H](CCC(=O)O)NC(=O)[C@H](CCCCN)NC(=O)[C@H](CCCNC(=N)N)NC(=O)[C@@H]1CSSC[C@@H]2NC(=O)[C@H](C)NC(=O)[C@H](CCCNC(=N)N)NC(=O)[C@H](CCCCN)NC(=O)[C@H](CO)NC(=O)[C@H](CC(=O)O)NC(=O)[C@@H]3CSSC[C@H](NC(=O)[C@H](CCCNC(=N)N)NC(=O)[C@H](CC(C)C)NC(=O)CNC(=O)[C@H](CCC(=O)O)NC(=O)[C@H](CSSC[C@H](NC(=O)[C@@H](N)Cc4ccc(O)cc4)C(=O)N[C@@H](CCC(N)=O)C(=O)N[C@@H](CCCCN)C(=O)N[C@@H](Cc4c[nH]c5ccccc45)C(=O)N[C@@H](CCSC)C(=O)N[C@@H](Cc4c[nH]c5ccccc45)C(=O)N[C@@H]([C@@H](C)O)C(=O)N3)NC2=O)C(=O)N[C@@H](CCCCN)C(=O)N[C@@H](CC(C)C)C(=O)N[C@@H](Cc2c[nH]c3ccccc23)C(=O)N1)C(N)=O [compound 69] | 0.568 | 300 | 8800 | 437 | 248 | 0.028 | > 5 | 0.33 | 0.83 | 30 | – | –
C#CC[C@H](N)C(=O)NCCCC[C@@H]1NC(=O)[C@H](CCCNC(=N)N)NC(=O)[C@H](CCCCN)NC(=O)[C@H](CO)NC(=O)[C@H](CC(=O)O)NC(=O)[C@@H]2CSSC[C@@H]3NC(=O)[C@H](CCCNC(=N)N)NC(=O)[C@H](CC(C)C)NC(=O)CNC(=O)[C@H](CCC(=O)O)NC(=O)[C@H](CSSC[C@H](NC(=O)[C@H](Cc4ccc(O)cc4)NC(=O)[C@@H](N)CC#N)C(=O)N[C@@H](CCC(N)=O)C(=O)N[C@@H](CCCCN)C(=O)N[C@@H](Cc4c[nH]c5ccccc45)C(=O)N[C@@H](CC(C)C)C(=O)N[C@@H](Cc4c[nH]c5ccccc45)C(=O)N[C@@H]([C@@H](C)O)C(=O)N2)NC(=O)[C@H](CSSC[C@@H](C(=O)N[C@@H](CCCNC(=N)N)C(=O)N[C@@H](CCCCN)C(=O)N[C@@H](CCC(=O)O)C(=O)N[C@H](C(N)=O)[C@@H](C)CC)NC(=O)[C@H](Cc2c[nH]c4ccccc24)NC(=O)[C@H](CC(C)C)NC(=O)[C@H](CCCCN)NC3=O)NC1=O [compound 449] | – | – | – | – | – | – | – | – | – | – | 1038 | 111
C#CC[C@H](N)C(=O)NCCOCCOCCOCCOCCOCCOCCOCCOCCOCCOCCOCCOCCC(=O)NCCCC[C@@H]1NC(=O)[C@@H]2CSSC[C@H](NC(=O)[C@@H](N)Cc3ccc(O)cc3)C(=O)N[C@@H](CCC(N)=O)C(=O)N[C@@H](CCCCN)C(=O)N[C@@H](Cc3c[nH]c4ccccc34)C(=O)N[C@@H](CCCC)C(=O)N[C@@H](Cc3c[nH]c4ccccc34)C(=O)N[C@@H]([C@@H](C)O)C(=O)N[C@H]3CSSC[C@H](NC(=O)[C@H](CCC(=O)O)NC(=O)[C@H](CC(C)C)NC(=O)CNC1=O)C(=O)N[C@@H](CCCCN)C(=O)N[C@@H](CC(C)C)C(=O)N[C@@H](Cc1c[nH]c4ccccc14)C(=O)N[C@H](C(=O)N[C@@H](CCCNC(=N)N)C(=O)N[C@@H](CCCCN)C(=O)N[C@H](C(=O)N[C@@H](Cc1c[nH]c4ccccc14)C(N)=O)[C@@H](C)CC)CSSC[C@H](NC(=O)[C@H](C)NC(=O)[C@H](CCCNC(=N)N)NC(=O)[C@H](CCCCN)NC(=O)[C@H](CO)NC(=O)[C@H](CC(=O)O)NC3=O)C(=O)N2 [compound 292] | – | – | – | – | – | – | – | – | – | – | 3 | 2
CC[C@H](C)[C@H](NC(=O)[C@@H](NC(=O)[C@H](CCCCN)NC(=O)[C@H](CCCNC(=N)N)NC(=O)[C@@H]1CSSC[C@@H]2NC(=O)[C@H](C)NC(=O)[C@H](CCCNC(=N)N)NC(=O)[C@H](CCCCN)NC(=O)[C@H](CO)NC(=O)[C@H](CC(=O)O)NC(=O)[C@@H]3CSSC[C@H](NC(=O)[C@H](CCCNC(=N)N)NC(=O)[C@H](CC(C)C)NC(=O)CNC(=O)[C@H](CCC(=O)O)NC(=O)[C@H](CSSC[C@H](NC(=O)[C@@H](N)Cc4ccc(O)cc4)C(=O)N[C@@H](CCC(N)=O)C(=O)N[C@@H](CCCCN)C(=O)N[C@@H](Cc4c[nH]c5ccccc45)C(=O)N[C@@H](CCSC)C(=O)N[C@@H](Cc4c[nH]c5ccccc45)C(=O)N[C@@H]([C@@H](C)O)C(=O)N3)NC2=O)C(=O)N[C@@H](CCCCN)C(=O)N[C@@H](CCC(=O)O)C(=O)N[C@@H](Cc2c[nH]c3ccccc23)C(=O)N1)[C@@H](C)CC)C(N)=O [compound 65] | – | – | – | – | 9550 | 4 | > 5 | 2 | > 5 | 1 | – | –
CC[C@H](C)[C@H](NC(=O)[C@@H](NC(=O)[C@H](CCCCN)NC(=O)[C@H](CCCNC(=N)N)NC(=O)[C@@H]1CSSC[C@@H]2NC(=O)[C@H](C)NC(=O)[C@H](CCCNC(=N)N)NC(=O)[C@H](CCCCN)NC(=O)[C@H](CCC(=O)O)NC(=O)[C@H](CC(=O)O)NC(=O)[C@@H]3CSSC[C@H](NC(=O)[C@H](CCCNC(=N)N)NC(=O)[C@H](CC(C)C)NC(=O)CNC(=O)[C@H](CCC(=O)O)NC(=O)[C@H](CSSC[C@H](NC(=O)[C@@H](N)Cc4ccc(O)cc4)C(=O)N[C@@H](CCC(N)=O)C(=O)N[C@@H](CCCCN)C(=O)N[C@@H](Cc4c[nH]c5ccccc45)C(=O)N[C@@H](CCSC)C(=O)N[C@@H](Cc4c[nH]c5ccccc45)C(=O)N[C@@H]([C@@H](C)O)C(=O)N3)NC2=O)C(=O)N[C@@H](CCCCN)C(=O)N[C@@H](CC(C)C)C(=O)N[C@@H](Cc2c[nH]c3ccccc23)C(=O)N1)[C@@H](C)CC)C(N)=O [compound 57] | – | – | – | – | 200 | 0.039 | > 5 | 0.19 | 0.38 | 10 | – | –
CC[C@H](C)[C@H](NC(=O)[C@@H](NC(=O)[C@H](CCCCN)NC(=O)[C@H](CCCNC(=N)N)NC(=O)[C@@H]1CSSC[C@@H]2NC(=O)[C@H](C)NC(=O)[C@H](CCCNC(=N)N)NC(=O)[C@H](CCCCN)NC(=O)[C@H](CO)NC(=O)[C@H](CC(=O)O)NC(=O)[C@@H]3CSSC[C@H](NC(=O)[C@H](CCCNC(=N)N)NC(=O)[C@H](CC(C)C)NC(=O)CNC(=O)[C@H](CCC(=O)O)NC(=O)[C@H](CSSC[C@H](NC(=O)[C@@H](N)Cc4ccc(O)cc4)C(=O)N[C@@H](CCC(N)=O)C(=O)N[C@@H](CCCCN)C(=O)N[C@@H](Cc4c[nH]c5ccccc45)C(=O)N[C@@H](CCSC)C(=O)N[C@@H](CCC(=O)O)C(=O)N[C@@H]([C@@H](C)O)C(=O)N3)NC2=O)C(=O)N[C@@H](CCCCN)C(=O)N[C@@H](CC(C)C)C(=O)N[C@@H](Cc2c[nH]c3ccccc23)C(=O)N1)[C@@H](C)CC)C(N)=O [compound 54] | – | – | – | – | > 10000 | 0.56 | > 5 | 2.8 | 2.6 | 5 | – | –
CC[C@H](C)[C@H](NC(=O)[C@@H](NC(=O)[C@H](CCCCN)NC(=O)[C@H](CCCNC(=N)N)NC(=O)[C@@H]1CSSC[C@@H]2NC(=O)[C@H](CCC(=O)O)NC(=O)[C@H](CCCNC(=N)N)NC(=O)[C@H](CCCCN)NC(=O)[C@H](CO)NC(=O)[C@H](CC(=O)O)NC(=O)[C@@H]3CSSC[C@H](NC(=O)[C@H](CCCNC(=N)N)NC(=O)[C@H](CC(C)C)NC(=O)CNC(=O)[C@H](CCC(=O)O)NC(=O)[C@H](CSSC[C@H](NC(=O)[C@@H](N)Cc4ccc(O)cc4)C(=O)N[C@@H](CCC(N)=O)C(=O)N[C@@H](CCCCN)C(=O)N[C@@H](Cc4c[nH]c5ccccc45)C(=O)N[C@@H](CCSC)C(=O)N[C@@H](Cc4c[nH]c5ccccc45)C(=O)N[C@@H]([C@@H](C)O)C(=O)N3)NC2=O)C(=O)N[C@@H](CCCCN)C(=O)N[C@@H](CC(C)C)C(=O)N[C@@H](Cc2c[nH]c3ccccc23)C(=O)N1)[C@@H](C)CC)C(N)=O [compound 60] | – | – | – | – | 146 | 0.02 | > 5 | 0.11 | 0.23 | 12 | – | –
CC[C@H](C)[C@H](NC(=O)[C@H](CCCCN)NC(=O)[C@H](CCCNC(=N)N)NC(=O)[C@@H]1CSSC[C@@H]2NC(=O)[C@H](C)NC(=O)[C@H](CCCNC(=N)N)NC(=O)[C@H](CCCCN)NC(=O)[C@H](CO)NC(=O)[C@H](CC(=O)O)NC(=O)[C@@H]3CSSC[C@H](NC(=O)[C@H](CCCNC(=N)N)NC(=O)[C@H](CC(C)C)NC(=O)CNC(=O)[C@H](CCC(=O)O)NC(=O)[C@H](CSSC[C@H](NC(=O)[C@@H](N)Cc4ccc(O)cc4)C(=O)N[C@@H](CCC(N)=O)C(=O)N[C@@H](CCCCN)C(=O)N[C@@H](Cc4c[nH]c5ccccc45)C(=O)N[C@@H](CCSC)C(=O)N[C@@H](Cc4c[nH]c5ccccc45)C(=O)N[C@@H]([C@@H](C)O)C(=O)N3)NC2=O)C(=O)N[C@@H](CCCCN)C(=O)N[C@@H](CC(C)C)C(=O)N[C@@H](Cc2c[nH]c3ccccc23)C(=O)N1)C(=O)N[C@@H](CCC(=O)O)C(N)=O [compound 70] | 261 | 43 | >38 | >38 | > 10000 | 0.28 | > 5 | 5 | > 5 | 18 | – | –
